Data on 13 molecules can be found in patent publication US8969312B2, “Low side effect pharmaceutical composition containing antituberculosis drugs” (priority 2011, dated 2015).

Each structure is given as a SMILES string.

Sequence of CYP2E1 (P05181 whole entry): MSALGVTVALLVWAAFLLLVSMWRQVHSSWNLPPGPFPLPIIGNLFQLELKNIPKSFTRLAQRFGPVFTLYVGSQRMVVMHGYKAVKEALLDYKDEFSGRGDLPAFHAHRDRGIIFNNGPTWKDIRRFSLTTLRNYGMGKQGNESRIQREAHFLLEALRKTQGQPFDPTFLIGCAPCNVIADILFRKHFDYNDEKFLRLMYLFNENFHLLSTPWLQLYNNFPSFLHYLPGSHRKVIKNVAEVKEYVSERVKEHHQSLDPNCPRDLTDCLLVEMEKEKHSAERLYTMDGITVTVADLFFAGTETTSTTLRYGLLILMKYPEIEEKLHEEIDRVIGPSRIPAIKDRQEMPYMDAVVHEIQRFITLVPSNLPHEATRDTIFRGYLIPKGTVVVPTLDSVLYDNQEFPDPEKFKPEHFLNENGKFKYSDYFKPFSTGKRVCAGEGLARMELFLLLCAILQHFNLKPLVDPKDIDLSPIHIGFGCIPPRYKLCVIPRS

One data set deals with amidase. Description: Mouse liver microsomal amidase, isoniazid to isonicotinic acid. It counts as biochemical. As to conditions: 1 uM. The text has this:
Mouse liver microsomes were used as the source of amidase, and isoniazid was used as the amidase metabolism drugs. quantitative isoniazid was catalyzed into metabolites isonicotinic acid (INA) by amidase, and was used as the index for measurement of the amidase activity for establishment of the platform for screening in vitro amidase activity inhibitors. The HPLC system includes a Shimadzu the LC-LOAD pump, 1 Shimadzu system control and a Shimadzu autosampler (Shimadzu Scientific Instrument, Japan). A C18 column (particle size 5 μm, inner diameter of 50×4.6 mm, 25 cm) containing 70% methanol and 30% ammonium formate (50 mM, pH=2.5) of the mobile phase for HPLC separation, and the experimental steps are outlined as follows:
(2) An aliquot of 150 μL mouse liver microsomal solution was added to 100 μL isoniazid solution in 35 μL 67 mM potassium phosphate buffer solution ([…], pH=7) with a final concentration at 3 mM, and then mixed thoroughly with 15 μL amidase inhibitor (deionized water was added in the control group). (3) Incubation at 37° C. water bath for 30 minutes. (4) An aliquot of 300 μL acetonitrile (ACN) was added and mixed thoroughly, and incubated for 6 minutes. (5) An aliquot of 30 μL perchloric acid was then mixed and incubated for 6 minutes. (6) The mixture was centrifuged at 13000 g for 6 minutes. (7) After centrifugation, 100 μL of the supernatant was injected into HPLC. (8) Methanol ammonium formate (50 mM, pH=2.5)=70:30 (V/V) was selected as the mobile phase, and the flow rate was controlled at […] and detected at 270 nm UV. […] The amidase inhibition % was then calculated using the following formula: […]
On the technique in general: Liver microsomes are a subcellular fraction often used to study metabolism.
`O=c1cc(-c2ccc(O)c(O)c2)oc2cc(O[C@@H]3O[C@H](CO)[C@@H](O)[C@H](O)[C@H]3O)cc(O)c12` [Luteolin-7-Glucoside]: the Amidase inhibition was determined as 3.2 ± 0.8%.

`O=c1cc(-c2ccc(O)c(O)c2)oc2cc(O)cc(O)c12` [Luteolin]: the Amidase inhibition is listed as 6.1 ± 9.1%.

Turning to `O=c1c(O)c(-c2ccc(O)cc2O)oc2cc(O)cc(O)c12` [Morin], the Amidase inhibition is listed as −16.6 ± 4.8%.

As to `O=c1c(O)c(-c2cc(O)c(O)c(O)c2)oc2cc(O)cc(O)c12` [Myricetin], the Amidase inhibition is on record as 8.0 ± 4.9%.

Regarding `O=c1c(O)c(-c2ccc(O)c(O)c2)oc2cc(O)cc(O)c12` [Quercetin], the Amidase inhibition was determined as 48.1 ± 15.0%.

For `COc1ccc(-c2oc3cc(O)cc(O)c3c(=O)c2O)cc1O` [Tamarixetin], the Amidase inhibition was 3.5 ± 10.5%.

For `C=CC(=C)CCC=C(C)C` [β-Myrcene], the Amidase inhibition is recorded as 1.7 ± 1.3%.

The same data set, now with this note: 10 uM.
`O=c1cc(-c2ccc(O)c(O)c2)oc2cc(O[C@@H]3O[C@H](CO)[C@@H](O)[C@H](O)[C@H]3O)cc(O)c12` [Luteolin-7-Glucoside]: the Amidase inhibition was determined as 8.7 ± 1.9%.

For `O=c1cc(-c2ccc(O)c(O)c2)oc2cc(O)cc(O)c12` [Luteolin], the Amidase inhibition is listed as 23.0 ± 6.0%.

Take `O=c1c(O)c(-c2ccc(O)cc2O)oc2cc(O)cc(O)c12` [Morin]: the Amidase inhibition was found to be 9.1 ± 1.7%.

Turning to `O=c1c(O)c(-c2cc(O)c(O)c(O)c2)oc2cc(O)cc(O)c12` [Myricetin], the Amidase inhibition was 37.8 ± 8.4%.

Regarding `O=c1c(O)c(-c2ccc(O)c(O)c2)oc2cc(O)cc(O)c12` [Quercetin], the Amidase inhibition is reported as 62.3 ± 4.4%.

For the molecule `COc1ccc(-c2oc3cc(O)cc(O)c3c(=O)c2O)cc1O` [Tamarixetin], the Amidase inhibition was found to be 27.9 ± 6.3%.

For the molecule `C=CC(=C)CCC=C(C)C` [β-Myrcene], the Amidase inhibition amounted to 6.6 ± 4.1%.

The data set is the same for the next values; noted with them: 100 uM.
With `O=c1cc(-c2ccc(O)c(O)c2)oc2cc(O[C@@H]3O[C@H](CO)[C@@H](O)[C@H](O)[C@H]3O)cc(O)c12` [Luteolin-7-Glucoside], the Amidase inhibition is on record as 12.9 ± 3.1%.

Turning to `O=c1cc(-c2ccc(O)c(O)c2)oc2cc(O)cc(O)c12` [Luteolin], the Amidase inhibition amounted to 47.5 ± 6.2%.

For `O=c1c(O)c(-c2ccc(O)cc2O)oc2cc(O)cc(O)c12` [Morin], the Amidase inhibition is 59.8 ± 5.1%.

For `O=c1c(O)c(-c2cc(O)c(O)c(O)c2)oc2cc(O)cc(O)c12` [Myricetin], the Amidase inhibition stood at 56.4 ± 1.5%.

Regarding `O=c1c(O)c(-c2ccc(O)c(O)c2)oc2cc(O)cc(O)c12` [Quercetin], the Amidase inhibition is recorded as 75.5 ± 2.2%.

Regarding `COc1ccc(-c2oc3cc(O)cc(O)c3c(=O)c2O)cc1O` [Tamarixetin], the Amidase inhibition was determined as 28.9 ± 4.2%.

As for `C=CC(=C)CCC=C(C)C` [β-Myrcene], the Amidase inhibition turned out to be 5.8 ± 2.7%.

The next data set concerns the target CYP2E1 (Homo sapiens, UniProt P05181). Nature of the data set: Human liver microsomal CYP2E1, chlorzoxazone 6-hydroxylation.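 Note: chlorzoxazone added as substrate, 6-hydroxychlorzoxazone formation quantified by LC/MS/MS after 30 min at 37 °C with NADP+ regenerating system, compared against solvent control without test sample.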 As to conditions: human, human liver microsomes, pH 7.4, probe Chlorzoxazone.
On to `O=C(O)CC(O)(CC(=O)O)C(=O)O` [Citric acid], for which the inhibition (in general, the change of the read-out against control, counted positive when it falls) at 30 min, 16.5 µM was 9.9 ± 3.1%; the inhibition at 30 min, 33 µM came to 15.5%; the inhibition at 30 min, 66 µM came out at 20.5 ± 1.8%.

Regarding `O.OC[C@H]1O[C@@H](O[C@H]2[C@H](O)[C@@H](O)C(O)O[C@@H]2CO)[C@H](O)[C@@H](O)[C@H]1O` (stereo partly shown) [Lactose monohydrate], the inhibition at 30 min, 16.5 µM turned out to be 7.8 ± 2.2%; the inhibition at 30 min, 33 µM came to 3.9 ± 2.3%; the inhibition at 30 min, 66 µM stood at 8.7 ± 3.8%.

Consider `CC1CCC(C(C)C)C(O)C1` (stereo not shown) [Menthol], for which the inhibition at 30 min, 0.08 % (w/v) is 20.8 ± 2.1% and the inhibition at 30 min, […] (w/v) turned out to be 10.5 ± 0.4%.

Turning to `COC(=O)c1ccc(O)cc1` [Methylparaben], the inhibition at 30 min, 16.5 µM was 4.6 ± 3.2%; the inhibition at 30 min, 33 µM is -14 ± 2.2%; the inhibition at 30 min, 66 µM is -21.5 ± 2%.

In the case of `CCCOC(=O)c1ccc(O)cc1` [Propylparaben], the inhibition at 30 min, 16.5 µM was -4.1 ± 1.2%; the inhibition at 30 min, 33 µM is -17.2 ± 2.4%; the inhibition at 30 min, 66 µM is -27.3 ± 3.7%.

Regarding `C/C=C/C=C/C(=O)O` [Sorbic acid], the inhibition at 30 min, 16.5 µM was 8.4 ± 1.6%; the inhibition at 30 min, 33 µM worked out at 10.9 ± 2.1%; the inhibition at 30 min, 66 µM is 14.8 ± 0.1%.

Staying with this data set, now noted: human, microsomes, pH 7.4.
Regarding `CC1CCC(C(C)C)C(O)C1` (stereo not shown) [Menthol], the inhibition at 30 min, 0.167 % (w/v) amounted to 30.8 ± 0.3%.

Another data set deals with human liver microsomal cytochrome P450 2E1 (CYP2E1) (Homo sapiens, UniProt P05181). Described as above. To be noted: 16.5 μM.
Sequence of human liver microsomal cytochrome P450 2E1 (CYP2E1) (P05181 whole entry): as above
For `O=c1cc(-c2ccc(O)c(O)c2)oc2cc(O[C@@H]3O[C@H](CO)[C@@H](O)[C@H](O)[C@H]3O)cc(O)c12` [Luteolin-7-Glucoside], the “Inhibition of CYP 2E1” value is listed as 42.96 ± 5.10%.

The same data set, now with this note: 33 μM.
Take `O=c1cc(-c2ccc(O)c(O)c2)oc2cc(O[C@@H]3O[C@H](CO)[C@@H](O)[C@H](O)[C@H]3O)cc(O)c12` [Luteolin-7-Glucoside]: the “Inhibition of CYP 2E1” value came to 55.87 ± 0.67%.

The data set is the same for the next values; noted with them: 66 μM.
As for `O=c1cc(-c2ccc(O)c(O)c2)oc2cc(O[C@@H]3O[C@H](CO)[C@@H](O)[C@H](O)[C@H]3O)cc(O)c12` [Luteolin-7-Glucoside], the “Inhibition of CYP 2E1” value was determined as 60.26 ± 1.11%.

The data set is the same for the next values; noted with them: Table 6; minimum tested concentration (mg/L) × volume of human liver and intestine (3 L).
Turning to `O=c1cc(-c2ccc(O)c(O)c2)oc2cc(O[C@@H]3O[C@H](CO)[C@@H](O)[C@H](O)[C@H]3O)cc(O)c12` [Luteolin-7-Glucoside], the “Minimum Effective Dose” value came to 24 mg.

`O=c1cc(-c2ccc(O)c(O)c2)oc2cc(O)cc(O)c12` [Luteolin]: the “Minimum Effective Dose” value came to 16 mg.

Consider `O=c1c(O)c(-c2ccc(O)cc2O)oc2cc(O)cc(O)c12` [Morin], for which the “Minimum Effective Dose” value amounted to 16 mg.

Consider `O=c1c(O)c(-c2cc(O)c(O)c(O)c2)oc2cc(O)cc(O)c12` [Myricetin], for which the “Minimum Effective Dose” value stood at 17 mg.

Take `O=c1c(O)c(-c2ccc(O)c(O)c2)oc2cc(O)cc(O)c12` [Quercetin]: the “Minimum Effective Dose” value amounted to 16 mg.

Consider `COc1ccc(-c2oc3cc(O)cc(O)c3c(=O)c2O)cc1O` [Tamarixetin], for which the “Minimum Effective Dose” value stood at 17 mg.

`C=CC(=C)CCC=C(C)C` [β-Myrcene]: the “Minimum Effective Dose” value was found to be 8 mg.

The same data set, now with this note: Table 7.
As for `O=C(O)CC(O)(CC(=O)O)C(=O)O` [Citric acid], the “Minimum Effective Dose” value is listed as 10 mg.

As to `O.OC[C@H]1O[C@@H](O[C@H]2[C@H](O)[C@@H](O)C(O)O[C@@H]2CO)[C@H](O)[C@@H](O)[C@H]1O` (stereo partly shown) [Lactose monohydrate], the “Minimum Effective Dose” value amounted to 18 mg.

`CC1CCC(C(C)C)C(O)C1` (stereo not shown) [Menthol]: the “Minimum Effective Dose” value is on record as 8 mg.

On to `COC(=O)c1ccc(O)cc1` [Methylparaben], for which the “Minimum Effective Dose” value turned out to be 8 mg.

In the case of `CCCOC(=O)c1ccc(O)cc1` [Propylparaben], the “Minimum Effective Dose” value is 9 mg.

Regarding `C/C=C/C=C/C(=O)O` [Sorbic acid], the “Minimum Effective Dose” value is 6 mg.
